We go through one molecule from US20220387544A1, “NOVEL THERAPEUTIC USE” (Artios Pharma Limited, priority 2019, published 2022).

Molecules are shown by their SMILES.

Holding throughout (type): cell-based
The subject of test [1] is CAL51 breast cancer cells. The experiment in a line: siRNA screen for Compound A sensitivity in CAL51. From the text:
(§1) An siRNA library was purchased from Dharmacon. Each well contained a SMART pool of four distinct siRNA species targeting different sequences of the target transcript, as well as individual siRNA targeting components of the Shieldin complex. Each plate was supplemented with negative siCONTROL (12 wells; Dharmacon) and positive control (four wells, siPLK1, Dharmacon). RNAi screening conditions were optimized and raw CellTitre-Glo (Promega) luminescent viability readings were generated as previously described (Lord et al DNA Repair (2008) 7, 2010-2019). Compound A or vehicle (DMSO) was added 24 h after transfection at 5 μM (CAL51) or 10 μM (RPE TP53-/-BRCA1-defective) concentration in media and cells were exposed for 5 days. Statistical analysis of the siRNA screen was performed as described elsewhere (Lord et al DNA Repair (2008) 7, 2010-2019). In brief, luminescence values from CellTitre-Glo assays in Compound A and DMSO exposed cells were log2 transformed and then normalized to plate median (PM) effects. Drug Effect (DE) scores were calculated from PM normalized data using the equation: DE=(log2 PM normalized signal of siRNA in the presence of Compound A)—(log2 PM normalized signal of siRNA in the absence of Compound A). DE values were then Z-score standardized according to screen median and median absolute deviation values.
To discover genes that are synthetic lethal with Polθ inhibitors, an siRNA screen using 1280 siRNAs was performed using CAL51 breast cancer cells. The cells were transfected with siRNA SMARTPools in a 384 well plate arrayed format then, twenty-four hours later, exposed to either DMSO or Compound A. Cells were then continuously cultured in the presence of Compound A or DMSO for a further five days, at which point the viability of cells was measured using CellTitre-Glo reagent (a luminescence assay measuring cellular ATP levels). Luminescence values from each well of the 384 well plate were log2 transformed and then normalized to the median signal on each plate (to account for plate to plate variation). By comparing normalized values for each siRNA SMARTPool in DMSO and Compound A-exposed cells, the effect of each siRNA on Compound A sensitivity was calculated, being expressed as a Drug Effect (DE) Z score.

For test [2], the system named is RPE1 TP53-/-BRCA1-/-cells. Nature of the test: siRNA screen for Compound A sensitivity in BRCA1 defective RPE1. The note with it: for Drug Effect (DE) Z-score: BRCA1 defective RPE1.
Text: as §1
To discover genes that are synthetic lethal with Polθ inhibitor in cells lacking DSBR through homologous recombination, an siRNA screen using 1418 siRNAs was performed using BRCA1 defective RPE1 TP53-/-BRCA1-/-cells. The screen was performed and analysed as described in FIG. 8 for the CAL51 screen. REV7 and SHLD2 (FAM35A) were two of the top hits (FIG. 8(a)), confirming the link between SHLD component defects and Polθ inhibitor sensitivity.

Test [3] has as its system parental and SHLD2 KO HCC1395 cells. The experiment in a line: Colony formation assay, HCC1395. The following applies: SHLD2 KO vs parental HCC1395 cells, colony solubilisation protocol. The procedure: (§2) 1 mL of cells were seeded per well in a 24-well plate in triplicate and incubated overnight at 37° C. Cells were treated with a seven-point dose response curve with a one-in-three serial dilution of compound for the timepoints listed in Table 5. For MDA-MB-436 cells media was replenished every five days.
(§3) Cells were fixed with 70% ethanol for 20 minutes at room temperature with shaking. Cells were then stained with 0.04% Crystal Violet (Sigma Aldrich) for 20 minutes at room temperature with shaking. Cells were washed 6 times with water and air-dried overnight.
Plates were imaged using a Gelcount (Oxford Optronix), and colonies were counted using parameters optimized for each cell line. […] Colonies were solubilized using 10% acetic acid (VWR) for 30 minutes, absorbance at 595 nm was read using the Clariostar plate reader (BMG Labtech), and blank correction was applied. Relative Survival was calculated by normalization of compound treated wells to DMSO treated wells.
The effect of a DNA polymerase theta […] inhibitor (Compound A) and the PARP inhibitor olaparib on the survival of parental and SHLD2 deleted (SHLD2 KO) HCC1395 cells was investigated by colony formation assay. Briefly, each population was seeded at low density, incubated with different concentrations of the compound and the relative survival normalized to untreated cells was measured with the colony solubilisation protocol.

Test [4] deals with parental and REV7 KO 22Rv1 cells. Nature of the test: Colony formation assay, 22Rv1. The note with it: REV7 KO vs REV7 wild type parental 22Rv1 cells, 2 weeks. Here is the method:
as §2, §3
Plates were imaged using a Gelcount (Oxford Optronix), and colonies were counted using parameters optimized for each cell line. 22Rv1 viability curves were generated from the colony counts alone. MDA-MB-436 and […] viability curves were generated from solubilized colonies. Colonies were solubilized using 10% acetic acid (VWR) for 30 minutes, absorbance at 595 nm was read using the Clariostar plate reader (BMG Labtech), and blank correction was applied. Relative Survival was calculated by normalization of compound treated wells to DMSO treated wells.
The effect of a DNA polymerase theta (Polθ) inhibitor (Compound A) or the PARP inhibitor olaparib on the survival of parental (REV7 wild type) or REV7 deleted (REV7 KO) 22Rv1 cells was investigated in colony formation assays (CFA—see protocol above). […]

Where [5] appears, read: non-targeting siRNA Allstar control.

`Cc1cccc(N(C)C(=O)[C@@H]2[C@H](O)CCN2c2nc(C)cc(C(F)(F)F)c2C#N)c1` [Compound A, (2S,3R)-1-(3-cyano-6-methyl-4-(trifluoromethyl)pyridin-2-yl)-3-hydroxy-N-methyl-N-(m-tolyl)pyrrolidine-2-carboxamide]: the “Drug Effect (DE) Z-score” value is recorded as 1.0 in test [1] (setting [5]); 0.8 in test [1] (non-targeting siRNA siCON1); 1.0 in test [1] (non-targeting siRNA siCON2); −2.88 in test [1] (siRNA pool targeting REV7, 5 μM, 5 days, median of triplicate screens); 1.3 in test [2] (setting [5]); −0.8 in test [2] (non-targeting siRNA siCON1). In test [2] (non-targeting siRNA siCON2), the “Drug Effect (DE) Z-score” value is recorded as −0.6. The “sensitivity caused by siRNAs targeting FAM35A or REV7 (DE<−2)” value in test [2] (BRCA1 defective RPE1 cells, 10 μM, 5 days) was “caused sensitivity”. For the same molecule, in test [3], the “sensitivity by relative survival” value is listed as “significantly more sensitive”. Further, in test [4], the “sensitivity by relative survival (colonies)” value was “significantly more sensitive”.
